Seven molecules from article PMC4117768, “Conjugation with polyamines enhances the antibacterial and anticancer activity of chloramphenicol” (Nucleic Acids Research, 2014) can be followed below.

For assay [1], the system named is complex C (poly(U)-programmed ribosomes from E. coli bearing Ac[3H]Phe-tRNA at the P-site), peptidyl transferase. Nature of the assay: Inhibition of AcPhe-puromycin synthesis (puromycin reaction, peptide bond formation). The class given is biochemical. The note with it: for Ki: 25°C, buffer A; for koff: isomerization C*I to CI, non linear regression fitting; for potency relative to CAM, based on Kik7/(k6 + k7): overall two-step inhibition of the puromycin reaction. As for the experimental part:
Isolation of 70S ribosomes from E. coli K12 cells and preparation of Ac[^3H]Phe-tRNA^Phe charged to 80% were performed, as described previously ([23]). The post-translocation complex of poly(U)-programmed ribosomes (complex C), bearing tRNA^Phe at the E-site and Ac[^3H]Phe-tRNA at the P-site was prepared in buffer A (100 mM Tris-HCl pH 7.2, 6 mM (CH3COO)2Mg, 100 mM NH4Cl and 6 mM 2-mercaptoethanol). The percentage of active ribosomes in AcPhe-tRNA binding was 72%. This ribosomal population was more than 90% reactive toward puromycin.
The reaction between complex C and excess puromycin (S), a pseudo-substrate which binds to the ribosomal A-site, was performed at 25°C in buffer A and analyzed as described in detail elsewhere ([11]). Briefly, since the reaction followed first-order kinetics, the first-order rate constant kobs at each concentration of puromycin was determined by fitting the corrected x-values into Equation ([1]), (1) where x is the product Ac[^3H]Phe-puromycin expressed as the percentage of complex C radioactivity added in the reaction mixture and t the time of the reaction. kobs is related to the puromycin concentration, [S], by the relationship, (2) where kcat is the catalytic rate constant of PTase and KS the affinity constant of puromycin for complex C.
In the presence of CAM–polyamine conjugates, biphasic logarithmic time plots were obtained. The slope of the straight line through the origin was taken as the value of the apparent rate constant, kobs(early), at the early phase of the reaction, while the slope of the second straight line was taken as the value of the rate constant, kobs(late), at the late phase of the reaction.

A further assay relates to wild-type S. aureus. Nature of the assay: Growth inhibition of bacterial cell cultures. The class given is cell-based. The following applies: Staphylococcus aureus, read-out: IC50 (inhibit the growth by half). The procedure:
(§1) S. aureus or E. coli cells (400 μl of a 0.700 OD560 preculture) containing wild-type or mutant ribosomes were added in 3.6 ml of LB (Luria Broth) medium and grown at 37°C in the presence or absence of CAM or PA–CAM conjugates until the optical density of the control culture (grown in the absence of drug) reached the value 0.700 at 560 nm. From the growth curves, the IC50 value for each strain was estimated as the concentration of the drug that is required to inhibit the growth by half.

A further assay deals with wild-type E. coli. Nature of the assay: Growth inhibition of bacterial cell cultures. The note with it: for IC50: Escherichia coli, read-out: IC50 (inhibit the growth by half); for IC50/IC50(puro): wild-type E. coli, IC50(puro) = concentration causing 50% inhibition in peptide-bond formation at 2 mM puromycin. The class given is cell-based. The procedure:
as §1

Assay [2] has as its system E. coli (A2503C) TA531 cells with pKK35 plasmid, mutated 23S rRNA. Nature of the assay: Growth inhibition of bacterial cell cultures, CAM-resistant mutant. The class given is cell-based. The note with it: Escherichia coli, read-out: IC50 (inhibit the growth by half).
Source text: (§2) CAM free base [D-(-)threo-1-(p-nitrophenyl)-2-amino-1,3-propanediol], puromycin dihydrochloride, tRNA^Phe from E. coli, dimethyl sulfate (DMS), DMS stop solution and tRNA^Phe from E. coli were purchased from Sigma-Aldrich. Kethoxal and 1-cyclohexyl-3-(2-morpholinoethyl)-carbodiimide metho-p-toluene sulfate (CMCT) were from MP Biomedicals and Fluka Biochemicals, respectively. AMV reverse transcriptase was supplied by Roche, dNTPs by HT Biotechnology, and ddNTPs by Jena Bioscience. L-[2,3,4,5,6 -^3H]Phenylalanine was from Amersham Biosciences and [α-^32P]ATP from Izotop. Cellulose nitrate filters (type HA; 0.45 μm pore size) were from Millipore Corp. Details in experimental procedures of synthesis and physical and spectra data for the synthesized compounds will be published elsewhere. […] The mesothelioma cell line ZL34 and its immortalized counterpart cell line Met5A, were kindly provided by Prof. G. Stathopoulos (University of Patras).
as §1

The subject of assay [3] is E. coli (A2058G) TA531 cells with pKK35 plasmid, mutated 23S rRNA. The description is as above. The class given is cell-based. The following applies: Escherichia coli, read-out: IC50 (inhibit the growth by half).
Source text: as §2, §1

The test system of assay [4] is central loop of Domain V of 23S rRNA, E. coli ribosomes. Nature of the assay: Time-resolved footprinting of PA–CAM conjugates bound to ribosomes (DMS, kethoxal, CMCT probing, primer extension). The class given is binding. As for the experimental part: Complexes RI and R*I were then probed at 37°C for 10 min with DMS, kethoxal or CMCT, as described previously ([30]). The modified sites in 23S rRNA were then analyzed by primer extension with reverse transcriptase, according to Moazed et al. ([30]). […] Extension products were run on 6% polyacrylamide/7M urea gels. Identification of the modified nucleotides, quantitative scanning of the gels and normalization of the band intensities were made as previously described ([4]). The values indicated in Table 2 denote the ratio between the normalized intensity of a band of interest and the normalized intensity of the corresponding band in the control lane (ribosomes non-treated with drugs).

The mark [5] stands for this setting: early phase of the reaction (encounter complex CI).
[6] abbreviates: late phase of the reaction (complex C*I).
[7] abbreviates: R*I binding state (3 min), conjugate at 50 × Ki, 25°C, ratio to control lane R.
The mark [8] stands for this setting: RI binding state (2 s), conjugate at 50 × Ki, 25°C, ratio to control lane R.

Read-outs that look alike come from different tables or passages of the source. Marks after values point to notes of the source that are not given here.

In general, Ki refers to the dissociation constant of the complex between target and ligand, obtained from inhibition or displacement. What is called koff is the first-order rate constant of dissociation. A lower koff goes with a long-lived complex. A word on the IC50: it is the concentration that gives 50% inhibition. On to `NCCCCNC(=O)CCC(=O)N[C@H](CO)[C@H](O)c1ccc([N+](=O)[O-])cc1` [Compound 1], for which the Ki in assay [1] (setting [5]) worked out at 3.37 ± 0.3 µM; in assay [1] (setting [6]), 0.9 ± 0.06 µM. The koff in assay [1] is 0.0175 ± 0.00167 s⁻¹. In addition, in assay [1], the “potency relative to CAM, based on Kik7/(k6 + k7)” value (“potency relative to CAM, based” below) was “equal”. The IC50 (with wild-type S. aureus; in the assay on wild-type E. coli; in assay [2]; in assay [3]) was more than 200 µM each time. In addition, the “IC50/IC50(puro)” value in the assay on wild-type E. coli is more than 37.0.

For the molecule `O=C(CCC(=O)N[C@H](CO)[C@H](O)c1ccc([N+](=O)[O-])cc1)NCCCNCCCCN(Cc1ccccc1)Cc1ccccc1` [Compound 5], the inhibition constant (Ki) in assay [1] (setting [5]) came out at 2.1 ± 0.17 µM. In assay [1], the koff was determined as 0.0148 ± 0.0013 s⁻¹ and the “potency relative to CAM, based” value was 1.5 fold. Besides, in assay [1] (setting [6]), the affinity corresponds to a Ki of 0.6 ± 0.05 µM. Also, in the assay with wild-type S. aureus, the IC50 was 13.7 ± 1.2 µM. Also, the IC50 in the assay on wild-type E. coli (WT-E. coli, LB medium, 37°C) amounted to 35.5 ± 3.6 µM. Moreover, the “IC50/IC50(puro)” value in the assay on wild-type E. coli came to 9.86 ± 1.29. The concentration for half-maximal inhibition (IC50) in assay [2] worked out at 37.1 ± 3.1 µM. Besides, the IC50 in assay [3] was 32.3 ± 3 µM. Moreover, in assay [4] (setting [7]), the “Relative reactivity of nucleoside A2058” value stood at 0.95 ± 0.08, the “Relative reactivity of nucleoside A2059” value was 1.00 ± 0.08, the “Relative reactivity of nucleoside A2062” value is reported as 1.00 ± 0.09 and the “Relative reactivity of nucleoside A2451” value is reported as 0.70 ± 0.05^b. In assay [4] (setting [7]), the “Relative reactivity of nucleoside A2602” value is recorded as 0.89 ± 0.07, the “Relative reactivity of nucleoside G2505” value was 0.50 ± 0.15^b,c, the “Relative reactivity of nucleoside U2506” value is on record as 0.70 ± 0.06^b and the “Relative reactivity of nucleoside U2609” value is reported as 0.90 ± 0.08. In addition, in assay [4] (setting [8]), the “Relative reactivity of nucleoside A2058” value came out at 1.10 ± 0.09, the “Relative reactivity of nucleoside A2059” value amounted to 0.90 ± 0.08, the “Relative reactivity of nucleoside A2062” value turned out to be 1.00 ± 0.06 and the “Relative reactivity of nucleoside A2451” value is reported as 0.65 ± 0.04^b. Also, in assay [4] (setting [8]), the “Relative reactivity of nucleoside A2602” value was 1.00 ± 0.06, the “Relative reactivity of nucleoside G2505” value was 0.74 ± 0.06^b, the “Relative reactivity of nucleoside U2506” value was 0.75 ± 0.05^b and the “Relative reactivity of nucleoside U2585” value stood at 0.92 ± 0.10. In assay [4] (setting [8]), the “Relative reactivity of nucleoside U2609” value is 1.00 ± 0.10.

As to `NCCCNCCCCNCCCNC(=O)CCC(=O)N[C@H](CO)[C@H](O)c1ccc([N+](=O)[O-])cc1` [Compound 2], the inhibitory constant (Ki) in assay [1] (setting [5]) is 2.2 ± 0.2 µM; in assay [1] (setting [6]) it was 0.75 ± 0.06 µM. The molecule also displayed a koff in assay [1] of 0.0198 ± 0.00267 s⁻¹. In addition, in assay [1], the “potency relative to CAM, based” value is on record as “equal”. For the same molecule, the IC50 with wild-type S. aureus is 45.3 ± 5.5 µM; in the assay on wild-type E. coli it was more than 100 µM; in assay [2], more than 100 µM; in assay [3], more than 100 µM. Also, the “IC50/IC50(puro)” value in the assay on wild-type E. coli is more than 22.2.

Take `NCCCCNC(=O)c1ccccc1C(=O)N[C@H](CO)[C@H](O)c1ccc([N+](=O)[O-])cc1` [Compound 6]: the Ki in assay [1] (setting [5]) came to 214 ± 17.1 µM; in assay [1] (setting [6]), 8.45 ± 0.67 µM. In addition, the koff in assay [1] amounted to 0.0125 ± 0.001 s⁻¹. Also, the “potency relative to CAM, based” value in assay [1] is “lower potency”. For the same molecule, the IC50 (with wild-type S. aureus; in the assay on wild-type E. coli; in assay [2]; in assay [3]) was more than 200 µM each time.

`O=C(CCNC(=O)c1nc[nH]n1)N[C@H](CO)[C@H](O)c1ccc([N+](=O)[O-])cc1` [Compound 9]: the inhibition constant Ki turned out to be 12 ± 1.08 µM in assay [1] (setting [5]) and 4 ± 0.44 µM in assay [1] (setting [6]). In assay [1], this molecule yielded a koff of 0.014 ± 0.0013 s⁻¹. In addition, in assay [1], the “potency relative to CAM, based” value is “lower potency”. Moreover, the 50% inhibitory concentration (IC50) in the assay on wild-type S. aureus is 66 ± 4.6 µM; in the assay on wild-type E. coli, more than 200 µM; in assay [2] it was more than 200 µM; in assay [3] it was more than 200 µM. Besides, the “IC50/IC50(puro)” value with wild-type E. coli is more than 8.3.

Turning to `NCCCCN(CCCN)C(=O)CCC(=O)N[C@H](CO)[C@H](O)c1ccc([N+](=O)[O-])cc1` [Compound 3], the values for the inhibition constant (Ki) in assay [1] (setting [5]) and in assay [1] (setting [6]) were 3.6 ± 0.3 µM and 1.2 ± 0.1 µM, respectively. Besides, the off-rate (koff) in assay [1] was 0.021 ± 0.00217 s⁻¹. Moreover, the “potency relative to CAM, based” value in assay [1] is given as “lower potency”. Also, the IC50 in the assay on wild-type S. aureus was 12.7 ± 1 µM; in the assay with wild-type E. coli, more than 150 µM; in assay [2], more than 150 µM; in assay [3], more than 150 µM. In addition, in the assay with wild-type E. coli, the “IC50/IC50(puro)” value is more than 20.8. Moreover, the “protection of U2585 against CMCT (footprinting)” value in assay [4] (2 s or 3 min incubation, Supplementary Figure S6) was “fails to detect a similar protection”.

In the case of `O=C(N[C@H](CO)[C@H](O)c1ccc([N+](=O)[O-])cc1)c1nc[nH]n1` [Compound 8], the Ki in assay [1] (setting [5]) is 3 ± 0.3 µM; in assay [1] (setting [6]), 1 ± 0.1 µM. In assay [1], this molecule had a koff of 0.0183 ± 0.002 s⁻¹. The “potency relative to CAM, based” value in assay [1] was “equal”. For the same molecule, the IC50 is more than 100 µM in the assay on wild-type S. aureus, more than 300 µM in the assay with wild-type E. coli, more than 300 µM in assay [2] and more than 300 µM in assay [3]. In the assay on wild-type E. coli, the “IC50/IC50(puro)” value is more than 50.
